Experiment in all cases: growth of human tumour cells (NCI), 48 h
Assay [1] concerns HCT-15.
Assay [2] relates to M14.
The subject of assay [3] is RXF 393.
Assay [4] concerns OVCAR-3.
In assay [5] the test system is SNB-75.
Assay [6] deals with UACC-62.
Assay [7] has as its system SK-MEL-28.
Assay [8] has as its system UACC-257.
Assay [9] relates to IGROV-1.
Assay [10] has as its system SF-268.
The subject of assay [11] is 786-0.
Assay [12] has as its system LOX IMVI.
Assay [13] deals with SK-MEL-2.
The subject of assay [14] is DU-145.
The subject of assay [15] is A549.
Assay [16] has as its system RPMI-8226.
Assay [17] deals with SW-620.
In assay [18] the test system is NCI-H23.
The test system of assay [19] is NCI-H522.

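Results reflect a 48-hour exposure of cells in 96-well plates to compound at five concentrations. GI50 is the concentration that inhibits growth by half.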 The source made the active and inactive calls. Cut-off read from the data, not from the text of the source: active = GI50 up to about 1.1 µM and inactive = higher.

As to `Cc1ccsc1/C=N/Nc1ccc2ccccc2n1`, the GI50 is 24.8 µM in assay [1]; 29.1 µM (inactive) in [2]; 30.5 µM (inactive) in [3]; 10.4 µM (inactive) in [4]; 32.9 µM (inactive) in assay [5]; 25.1 µM (inactive) in assay [6]. Also, the GI50 was 80.4 µM (inactive) in assay [7]; 6.12 µM (inactive) in assay [8]; 8.26 µM (inactive) in [9]; 32.1 µM (inactive) in assay [10]; 30.8 µM (inactive) in [11]; 24.2 µM (inactive) in [12]. Besides, the GI50 in assay [13] was 25.2 µM (inactive); in assay [14] it was 48.9 µM (inactive); in assay [15], 7.43 µM (inactive); in assay [16], 48.8 µM (inactive); in assay [17] it was 85.1 µM (inactive); in assay [18], 51.1 µM (inactive).

For `OCC1NCC(O)C(O)C1O` (stereo unspecified), the GI50 in assay [1] is more than 100 µM; in assay [2], > 100 µM (inactive); in assay [3], > 100 µM (inactive); in [4], > 100 µM (inactive); in [5], > 100 µM (inactive); in assay [6], > 100 µM (inactive). The GI50 in assay [7], in assay [19], in assay [8], in assay [9], in assay [10] and in assay [11] was > 100 µM (inactive) each time. The GI50 in assay [14], in assay [15], in [16], in assay [17] and in assay [18] was > 100 µM (inactive) in each case.

On to `S=P(N1CCCC1)(N1CC1)N1CC1`, for which the GI50 in [1] is more than 100 µM; in assay [2], > 100 µM (inactive); in assay [3] it was > 100 µM (inactive); in assay [4], > 100 µM (inactive); in assay [5], > 100 µM (inactive); in assay [6], > 100 µM (inactive). Moreover, the GI50 in assay [7] was > 100 µM (inactive); in [19], 83.9 µM (inactive); in assay [8], > 100 µM (inactive); in assay [9] it was > 100 µM (inactive); in assay [10] it was > 100 µM (inactive); in assay [11] it was > 100 µM (inactive). In addition, the GI50 in [12], in assay [13], in assay [15], in assay [16], in [17] and in [18] was > 100 µM (inactive) throughout.

As for `O=C(c1ccc([N+](=O)[O-])cc1[N+](=O)[O-])N(/N=C/C=C/c1ccccc1)c1nnc(-c2ccccc2)c(-c2ccccc2)n1`, the GI50 was 29 µM in assay [1]; 30.6 µM (inactive) in assay [2]; 22.8 µM (inactive) in [3]; 21 µM (inactive) in assay [4]; 28.8 µM (inactive) in assay [5]; 20.6 µM (inactive) in [6]. In addition, the GI50 is 27.3 µM (inactive) in [7]; 22 µM (inactive) in [19]; 31.5 µM (inactive) in assay [8]; 42.1 µM (inactive) in assay [9]; 40.7 µM (inactive) in [10]; 21 µM (inactive) in assay [11]. Further, the GI50 in assay [12] is 35.7 µM (inactive); in [13] it was 31 µM (inactive); in assay [15], 29.4 µM (inactive); in [16], 20.5 µM (inactive); in assay [17] it was 44.4 µM (inactive); in [18], 27 µM (inactive).

As to `O=C(CC(C(=O)c1ccsc1)c1ccccc1)c1ccccc1` (stereo unspecified), the GI50 in [1] is 83.9 µM; in [2] it was > 100 µM (inactive); in assay [3], > 100 µM (inactive); in assay [4], > 100 µM (inactive); in [5], > 100 µM (inactive); in assay [6] it was 71.1 µM (inactive). For the same compound, the GI50 in [7] is 7.28 µM (inactive); in assay [19], 34.8 µM (inactive); in assay [8] it was > 100 µM (inactive); in [9], > 100 µM (inactive); in assay [10] it was > 100 µM (inactive); in assay [11] it was > 100 µM (inactive). For the same compound, the GI50 in assay [12] was > 100 µM (inactive); in [14] it was > 100 µM (inactive); in assay [15] it was 28 µM (inactive); in assay [16], > 100 µM (inactive); in assay [17], > 100 µM (inactive); in [18], 0.0217 µM (active).

For `Nc1nc(O)c([N+](=O)[O-])c(NCCOCP(=O)(O)O)n1`, the GI50 in assay [2], in assay [3], in assay [4], in assay [5], in [6] and in assay [7] was > 100 µM (inactive) in each case. Besides, the GI50 in assay [19], in [8], in assay [9], in assay [10], in [11] and in assay [12] was > 100 µM (inactive) each time. The GI50 in assay [13], in [15], in assay [16], in assay [17] and in assay [18] was > 100 µM (inactive) each time.

In the case of `O=c1[nH]c(=O)n(C2CC(O)C(CO)O2)cc1COCC(F)(F)F` (stereo unspecified), the GI50 in assay [2], in assay [3], in assay [4], in assay [5], in assay [6] and in assay [19] was > 100 µM (inactive) in each case. Besides, the GI50 in [8], in [9], in assay [10], in [11], in [12] and in [13] was > 100 µM (inactive) throughout. Further, the GI50 in [15], in assay [16], in assay [17] and in [18] was > 100 µM (inactive) in each case.

Take `O=C(Nc1cc(Cl)ccc1Cl)c1cc2ccccc2oc1=O`: the GI50 was more than 100 µM in assay [1]; > 100 µM (inactive) in assay [2]; 37.2 µM (inactive) in assay [3]; 77.6 µM (inactive) in assay [4]; 15.7 µM (inactive) in assay [5]; > 100 µM (inactive) in assay [6]. Further, the GI50 is > 100 µM (inactive) in [7]; > 100 µM (inactive) in assay [19]; 97.3 µM (inactive) in assay [8]; > 100 µM (inactive) in assay [9]; 51.8 µM (inactive) in assay [11]; 61 µM (inactive) in assay [12]. Moreover, the GI50 in [13], in assay [15], in [16], in assay [17] and in assay [18] was > 100 µM (inactive) in each case.

Turning to `CC(C)(C)/N=C1/CC(C)(C)c2ccccc2/C(=N\c2ccccc2)S1`, the GI50 was 37.2 µM in assay [1]; 39.5 µM (inactive) in assay [2]; 21.4 µM (inactive) in assay [3]; 33.1 µM (inactive) in assay [4]; 32.5 µM (inactive) in assay [5]; 27 µM (inactive) in assay [6]. Further, the GI50 in assay [7] is 37.4 µM (inactive); in assay [19], 15.2 µM (inactive); in assay [8], 30 µM (inactive); in [9], 48.3 µM (inactive); in assay [10] it was 28.2 µM (inactive); in assay [11], 39.4 µM (inactive). Moreover, the GI50 in assay [12] is 18.6 µM (inactive); in assay [13], 34.4 µM (inactive); in assay [15], 36.4 µM (inactive); in assay [16], 11.2 µM (inactive); in assay [17] it was 44 µM (inactive); in [18] it was 27.7 µM (inactive).

As for `C/C(CN1C(=O)c2ccccc2C1=O)=N\NS(=O)(=O)c1ccc(Br)cc1`, the GI50 in [1] is more than 100 µM; in [2], > 100 µM (inactive); in assay [3], > 100 µM (inactive); in assay [4], > 100 µM (inactive); in [5], > 100 µM (inactive); in [6], > 100 µM (inactive). The GI50 in assay [7], in assay [19], in assay [8], in assay [9], in assay [10] and in [11] was > 100 µM (inactive) throughout. For the same compound, the GI50 in assay [12], in assay [13], in [15], in assay [16], in assay [17] and in assay [18] was > 100 µM (inactive) in each case.

For the compound `N#CC(NNC(=O)c1ccccc1O)c1ccc(O)cc1` (stereo unspecified), the GI50 was 8.63 µM in [1]; 6.93 µM (inactive) in [2]; 1.48 µM (inactive) in [3]; 9.55 µM (inactive) in [4]; 1.24 µM (inactive) in assay [5]; 1.95 µM (inactive) in assay [6]. The GI50 in assay [7] was > 100 µM (inactive); in assay [19], 12.8 µM (inactive); in assay [8] it was 15.6 µM (inactive); in assay [9] it was 3.96 µM (inactive); in [10], 1.79 µM (inactive); in assay [11], 8.02 µM (inactive). Also, the GI50 in assay [12] is 5.83 µM (inactive); in assay [13] it was 2.67 µM (inactive); in [15], 2.74 µM (inactive); in assay [16], 10.2 µM (inactive); in assay [17], 26.7 µM (inactive); in [18], 8.05 µM (inactive).

For the compound `O=C(/C=N/O)Nc1cccc(Cl)c1I`, the GI50 in assay [1] is 79.1 µM; in assay [2], 47.2 µM (inactive); in [3], 23.7 µM (inactive); in assay [4], 30.1 µM (inactive); in assay [5], 12.8 µM (inactive); in assay [6], 43.1 µM (inactive). For the same compound, the GI50 in assay [7] is > 100 µM (inactive); in assay [19], 26.1 µM (inactive); in assay [8] it was 56.9 µM (inactive); in assay [9], 26.5 µM (inactive); in assay [10] it was 35.9 µM (inactive); in assay [11], > 100 µM (inactive). Also, the GI50 in [12] was 96.8 µM (inactive); in assay [13] it was 24.9 µM (inactive); in [15], 46 µM (inactive); in assay [16], 30.6 µM (inactive); in assay [17], > 100 µM (inactive); in [18], 59.2 µM (inactive).

Values taken from ChEMBL document CHEMBL1201862, “PubChem BioAssay data set” (2004).
